From ChEMBL document CHEMBL6177950, “Discovery of potent and selective CDK2 inhibitors with high safety and favorable bioavailability for the treatment of cancer” (Eur J Med Chem, 2025)
pIC50: −log10 of the molar value. Active and inactive are the calls of the source. No cut-off for these calls is given here.

How the values were obtained:
OVCAR-3 [1] = assay: Induction of apoptosis in human OVCAR-3 cells assessed as late apoptotic cells at 2 uM incubated for 24 hrs by Annexin V-FITC/PI staining based flow cytometry analysis (reference value: 2.67%); assay type: functional
OVCAR-3 [2] = assay: Upregulation of inflammation-related pathway gene expression in human OVCAR-3 cells by GSEA; assay type: functional, cell-based
OVCAR-3 [3] = assay: Induction of apoptosis in human OVCAR-3 cells assessed as upregulation of PARP cleavage incubated for 24 hrs by Western blot analysis; assay type: functional, cell-based
CDK6/cyclin D3 = CDK6/cyclin D3 (Homo sapiens, UniProt Q00534); assay: Inhibition of CDK6/Cyclin D3 (unknown origin) pre-incubated for 10 mins followed by ATP/substrate addition and measured after 120 mins by ADP-Glo assay; assay type: protein-complex assay
Sequence of CDK6/cyclin D3 (P30281 whole entry): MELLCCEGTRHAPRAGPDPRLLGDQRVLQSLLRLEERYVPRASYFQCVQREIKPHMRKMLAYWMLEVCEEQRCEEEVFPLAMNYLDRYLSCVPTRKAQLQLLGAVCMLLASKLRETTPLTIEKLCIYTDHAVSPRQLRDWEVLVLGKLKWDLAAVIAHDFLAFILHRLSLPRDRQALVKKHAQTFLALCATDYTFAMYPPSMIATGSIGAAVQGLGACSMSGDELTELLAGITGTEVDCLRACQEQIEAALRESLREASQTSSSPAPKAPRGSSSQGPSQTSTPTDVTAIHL
Sequence of CDK6/cyclin D3 (Q00534 whole entry): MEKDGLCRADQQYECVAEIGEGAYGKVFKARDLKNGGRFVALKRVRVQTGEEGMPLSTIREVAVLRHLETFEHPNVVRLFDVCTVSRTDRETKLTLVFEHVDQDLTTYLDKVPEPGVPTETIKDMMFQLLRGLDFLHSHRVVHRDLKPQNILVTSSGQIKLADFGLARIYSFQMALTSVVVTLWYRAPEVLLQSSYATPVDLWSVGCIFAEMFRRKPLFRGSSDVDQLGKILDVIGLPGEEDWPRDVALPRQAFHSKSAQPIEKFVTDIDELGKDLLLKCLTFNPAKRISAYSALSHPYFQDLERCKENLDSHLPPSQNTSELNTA

[4] = Acute toxicity in ICR mouse assessed as reduction in body weight at 1000 to 2500 mg/kg, po administered once and measured immediately; assay type: organism-based; conditions: in vivo, dose 1000-2500 mg/kg
[5] = Acute toxicity in ICR mouse assessed as effect on liver weight at 1000 to 2500 mg/kg, po administered once for 14 days; assay type: organism-based; conditions: in vivo, 336 h, dose 1000-2500 mg/kg, time 14 day
[6] = Acute toxicity in ICR mouse assessed as pathological changes in liver at 1000 to 2500 mg/kg, po administered once for 14 days by H and E staining analysis; assay type: organism-based; conditions: in vivo, 336 h, dose 1000-2500 mg/kg, time 14 day
[7] = Acute toxicity in ICR mouse assessed as pathological changes in kidney at 1000 to 2500 mg/kg, po administered once for 14 days by H and E staining analysis; assay type: organism-based; conditions: in vivo, 336 h, dose 1000-2500 mg/kg, time 14 day
[8] = Antiproliferative activity against CCNE1-amplified human OVCAR-3 cells assessed as cell growth inhibition incubated for 3 days by CCK8 assay; assay type: functional, cell-based; conditions: OVCAR-3, 72 h
OVCAR-3 [9] = assay: Antitumor activity against human OVCAR-3 cells xenografted in nude BALB/c mouse assessed as suppression of tumor cell proliferation at 40 to 80 mg/kg, po administered once daily for 21 days by Ki67 staining based analysis; assay type: functional, organism-based; conditions: dose 40-80 mg/kg, time 21.0 day
[10] = Acute toxicity in ICR mouse assessed as increase in body weight at 1000 to 2500 mg/kg, po administered once and measured after 1 week; assay type: organism-based; conditions: in vivo, 168 h, dose 1000-2500 mg/kg, time 1 weeks
[11] = Acute toxicity in ICR mouse assessed as effect on lung weight at 1000 to 2500 mg/kg, po administered once for 14 days; assay type: organism-based; conditions: in vivo, 336 h, dose 1000-2500 mg/kg, time 14 day
OVCAR-3 [12] = assay: Upregulation of JUNB gene expression in human OVCAR-3 cells by GSEA; assay type: functional, cell-based
[13] = Oral bioavailability in Sprague-Dawley rat at 20 mg/kg by LC-MS/MS analysis; assay type: ADME, organism-based; conditions: in vivo
[14] = Clearance in Sprague-Dawley rat at 2 mg/kg, iv by LC-MS/MS analysis; assay type: ADME, organism-based; conditions: in vivo
[15] = Toxicity in nude BALB/c mouse xenografted with human OVCAR-3 cells assessed as increase in body weight at 40 to 80 mg/kg, po administered once daily for 21 days; assay type: organism-based; conditions: in vivo, 504 h, dose 40-80 mg/kg, time 21 day
[16] = Cmax in Sprague-Dawley rat at 20 mg/kg, po by LC-MS/MS analysis; assay type: ADME, organism-based; conditions: in vivo
OVCAR-3 [17] = assay: Induction of apoptosis in human OVCAR-3 cells assessed as viable cells at 2 uM incubated for 24 hrs by Annexin V-FITC/PI staining based flow cytometry analysis (reference value: 95.2%); assay type: functional; conditions: read-out: Activity
[18] = Half life in Sprague-Dawley rat at 20 mg/kg, po by LC-MS/MS analysis; assay type: ADME, organism-based; conditions: in vivo
[19] = Acute toxicity in ICR mouse assessed as pathological changes in spleen at 1000 to 2500 mg/kg, po administered once for 14 days by H and E staining analysis; assay type: organism-based; conditions: in vivo, 336 h, dose 1000-2500 mg/kg, time 14 day
[20] = Acute toxicity in ICR mouse assessed as effect on kidney weight at 1000 to 2500 mg/kg, po administered once for 14 days; assay type: organism-based; conditions: in vivo, 336 h, dose 1000-2500 mg/kg, time 14 day

CCC(C)n1cc(-c2nc(NC3CCN(S(=O)(=O)C4CC4)CC3)ncc2F)cc(F)c1=O (stereo unspecified)
Activity (OVCAR-3 [1]): 13.2%
Activity (OVCAR-3 [2]): Active
Activity (OVCAR-3 [3]): Dose-dependent-effect
pIC50 (CDK6/cyclin D3): 6.77
Activity [4]: Toxic
Activity [5]: Non-toxic
Activity [6]: Non-toxic
Activity [7]: Non-toxic
pIC50 [8]: 5.79
Activity (OVCAR-3 [9]): Active
Activity [10]: Non-toxic
Activity [11]: Non-toxic
Activity (OVCAR-3 [12]): Active
bioavailability [13]: 79.5%
clearance [14]: 28.3 mL/min/kg
Activity [15]: Non-toxic
Cmax [16]: 2130 ng/mL
viability at 2 µM (OVCAR-3 [17]): 79.3%
half-life [18]: 4.54 h
Activity [19]: Non-toxic
Activity [20]: Non-toxic
